Laboratory results from patent US5079341.
Like-named read-outs stand apart in the source and are kept apart here.

Details: amide bond, 33-membered ring, BOP/DMAP

CC[C@@H]1NC(=O)[C@@H]2C[C@@H](O)CN2C(=O)[C@H](C(C)C)N(C)C(=O)[C@H](CC(C)C)N(C)C(=O)[C@H](CC(C)C)N(C)C(=O)[C@@H](C)NC(=O)[C@H](C)NC(=O)[C@H](CC(C)C)N(C)C(=O)[C@H](C(C)C)NC(=O)[C@H](CC(C)C)N(C)C(=O)CN(C)C1=O
ring closure, isolated yield (from H-Hyp-Abu-Sar-MeLeu-Val-MeLeu-Ala-dAla-MeLeu-MeLeu-MeVal-OH, CH2Cl2, 0.35 mM): 30%

CCCC[C@@H]1NC(=O)[C@@H]2C[C@@H](O)CN2C(=O)[C@H](C(C)C)N(C)C(=O)[C@H](CC(C)C)N(C)C(=O)[C@H](CC(C)C)N(C)C(=O)[C@@H](C)NC(=O)[C@H](C)NC(=O)[C@H](CC(C)C)N(C)C(=O)[C@H](C(C)C)NC(=O)[C@H](CC(C)C)N(C)C(=O)CN(C)C1=O
ring closure, isolated yield (from H-Hyp-Nle-Sar-MeLeu-Val-MeLeu-Ala-dAla-MeLeu-MeLeu-MeVal-OH, CH2Cl2, 0.4 mM): 26%

CCCC[C@@H]1NC(=O)[C@H]([C@@H](C)O)N(C)C(=O)[C@H](C(C)C)N(C)C(=O)[C@H](CC(C)C)N(C)C(=O)[C@H](CC(C)C)N(C)C(=O)[C@@H](C)NC(=O)[C@H](C)NC(=O)[C@H](CC(C)C)N(C)C(=O)[C@H](C(C)C)NC(=O)[C@H](CC(C)C)N(C)C(=O)CN(C)C1=O
ring closure, isolated yield (from H-MeThr-Nle-Sar-MeLeu-Val-MeLeu-Ala-dAla-MeLeu-MeLeu-MeVal-OH, CH2Cl2, 0.325 mM): 14%

CCC[C@@H]1NC(=O)[C@H](CO)N(C)C(=O)[C@H](C(C)C)N(C)C(=O)[C@H](CC(C)C)N(C)C(=O)[C@H](CC(C)C)N(C)C(=O)[C@@H](C)NC(=O)[C@H](C)NC(=O)[C@H](CC(C)C)N(C)C(=O)[C@H](C(C)C)NC(=O)[C@H](CC(C)C)N(C)C(=O)CN(C)C1=O
ring closure, isolated yield (from H-MeSer-Nva-Sar-MeLeu-Val-MeLeu-Ala-dAla-MeLeu-MeLeu-MeVal-OH, CH2Cl2/THF 1:1, 3.9 mM): 20%

CC[C@@H]1NC(=O)[C@H](CCNC(=O)OCC2c3ccccc3-c3ccccc32)NC(=O)[C@H](C(C)C)N(C)C(=O)[C@H](CC(C)C)N(C)C(=O)[C@H](CC(C)C)N(C)C(=O)[C@@H](C)NC(=O)[C@H](C)NC(=O)[C@H](CC(C)C)N(C)C(=O)[C@H](C(C)C)NC(=O)[C@H](CC(C)C)N(C)C(=O)CN(C)C1=O
ring closure, isolated yield (from H-Dab(Fmoc)-Abu-Sar-MeLeu-Val-MeLeu-Ala-dAla-MeLeu-MeLeu-MeVal-OH, CH2Cl2, 0.165 mM): 37%

CC[C@@H]1NC(=O)[C@H](CO)N(C)C(=O)[C@H](C(C)C)N(C)C(=O)[C@H](CC(C)C)N(C)C(=O)[C@H](CC(C)C)N(C)C(=O)[C@@H](C)NC(=O)[C@H](C)NC(=O)[C@H](CC(C)C)N(C)C(=O)[C@H](C(C)C)NC(=O)[C@H](CC(C)C)N(C)C(=O)CN(C)C1=O
ring closure, isolated yield (from H-MeSer-Abu-Sar-MeLeu-Val-MeLeu-Ala-dAla-MeLeu-MeLeu-MeVal-OH, CH2Cl2, 0.176 mM): 15%

CCCC[C@@H]1NC(=O)[C@H](CO)N(C)C(=O)[C@H](C(C)C)N(C)C(=O)[C@H](CC(C)C)N(C)C(=O)[C@H](CC(C)C)N(C)C(=O)[C@@H](C)NC(=O)[C@H](C)NC(=O)[C@H](CC(C)C)N(C)C(=O)[C@H](C(C)C)NC(=O)[C@H](CC(C)C)N(C)C(=O)CN(C)C1=O
ring closure, isolated yield (from H-MeSer-Nle-Sar-MeLeu-Val-MeLeu-Ala-dAla-MeLeu-MeLeu-MeVal-OH, THF/CH2Cl2 1:1, 0.433 mM): 16%
